# In ChEMBL document CHEMBL3612010, “Deprotometalation-iodolysis and computed CH acidity of 1,2,3- and 1,2,4-triazoles. Application to the synthesis of resveratrol analogues” (Bioorg Med Chem, 2015):
# Key:
# Pseudomonas aeruginosa = assay: Antibacterial activity against Pseudomonas aeruginosa […] after 24 hrs by broth microdilution method; type: functional
# Staphylococcus aureus [1] = assay: Antibacterial activity against Staphylococcus aureus ATCC 29213 after 24 hrs by broth microdilution method; type: functional; conditions: ATCC 29213, 24 h
# MDA-MB-231 [2] = assay: Antiproliferative activity against human MDA-MB-231 cells assessed as cell survival at 100 uM after 24 hrs by MTT assay relative to control; type: functional; conditions: MDA-MB-231, 24 h, read-out: Survival
# Enterococcus faecalis = assay: Antibacterial activity against Enterococcus faecalis ATCC 29212 after 24 hrs by broth microdilution method; type: functional; conditions: ATCC 29212, 24 h
# Escherichia coli = assay: Antibacterial activity against Escherichia coli ATCC 25922 after 24 hrs by broth microdilution method; type: functional; conditions: ATCC 25922, 24 h
# Staphylococcus aureus [3] = assay: Antibacterial activity against Staphylococcus aureus ATCC 25923 after 24 hrs by broth microdilution method; type: functional; conditions: ATCC 25923, 24 h
# MDA-MB-231 [4] = assay: Antiproliferative activity human MDA-MB-231 cells assessed as cell survival after 48 hrs by MTT assay; type: functional, cell-based; conditions: MDA-MB-231, 48 h
# MDA-MB-231 [5] = assay: Antiproliferative activity against human MDA-MB-231 cells assessed as cell survival at 100 uM after 48 hrs by MTT assay relative to control; type: functional; conditions: MDA-MB-231, 48 h, read-out: Survival
# MDA-MB-231 [6] = assay: Antiproliferative activity against human MDA-MB-231 cells assessed as cell survival at 25 uM after 48 hrs by MTT assay relative to control; type: functional; conditions: MDA-MB-231, 48 h, read-out: Survival
Compound,MIC (Pseudomonas aeruginosa) [µg/mL],MIC (Staphylococcus aureus [1]) [µg/mL],viability at 100 µM (MDA-MB-231 [2]) [%],MIC (Enterococcus faecalis) [µg/mL],MIC (Escherichia coli) [µg/mL],MIC (Staphylococcus aureus [3]) [µg/mL],IC50 (MDA-MB-231 [4]) [µM],viability at 100 µM (MDA-MB-231 [5]) [%],viability at 25 µM (MDA-MB-231 [6]) [%]
COc1ccc(OC)c(-c2cnn(-c3ccccc3)n2)c1,128,128,94,128,128,256,,,
Clc1cccc(-c2cnn(-c3ccccc3-c3cccc(Cl)c3)n2)c1,128,256,40.5,256,128,128,45.5,11,
Nc1ccc(-c2cnn(-c3ccccc3)n2)cc1,64,256,66,128,128,256,,,
Nc1ccc(-c2cnn(-c3ccccc3-c3ccc(N)cc3)n2)cc1,128,128,44,128,128,64,17.5,2.5,22
CC1(C)S[C@@H]2[C@H](NC(=O)[C@H](C(=O)O)c3ccsc3)C(=O)N2[C@H]1C(=O)O [TICARCILLIN],8,,,,,,,,
CC1(C)S[C@@H]2[C@H](NC(=O)[C@H](N)c3ccc(O)cc3)C(=O)N2[C@H]1C(=O)O [AMOXICILLIN],,,,,4,,,,
COc1ccc(-c2cnn(-c3ccccc3-c3ccc(OC)cc3)n2)cc1,256,256,75,256,256,256,,,
Oc1ccc(-c2cnn(-c3ccccc3-c3ccc(O)cc3)n2)cc1,64,128,54.5,128,128,128,40,11,
FC(F)(F)Oc1ccc(-n2nccn2)cc1,128,256,58.5,128,256,256,67,24,
c1ccc(-c2cnn(-c3ccccc3)n2)cc1,128,> 256,85.5,128,128,256,,,
Oc1ccc(-c2cnn(-c3ccccc3)n2)cc1,128,64,102,64,128,128,,,
CN[C@H](CC(C)C)C(=O)N[C@H]1C(=O)N[C@@H](CC(N)=O)C(=O)N[C@H]2C(=O)N[C@H]3C(=O)N[C@H](C(=O)N[C@H](C(=O)O)c4cc(O)cc(O)c4-c4cc3ccc4O)[C@H](O)c3ccc(c(Cl)c3)Oc3cc2cc(c3O[C@@H]2O[C@H](CO)[C@@H](O)[C@H](O)[C@H]2O[C@H]2C[C@](C)(N)[C@H](O)[C@H](C)O2)Oc2ccc(cc2Cl)[C@H]1O [VANCOMYCIN],,,,< 1,,,,,
Cc1onc(-c2ccccc2)c1C(=O)N[C@@H]1C(=O)N2[C@@H]1SC(C)(C)[C@@H]2C(=O)O [OXACILLIN],,< 1,,,,< 1,,,
c1ccc(-c2cnn(-c3ccccc3-c3ccccc3)n2)cc1,128,128,49,128,256,256,52,23,
Oc1ccc(/C=C/c2cc(O)cc(O)c2)cc1 [RESVERATROL],,,93.4,,,,130,60.3,
